What was measured:
[1] = tested on: STAT3 phosphorylation (JAK-STAT pathway); test: p-STAT3 Western blotting in GBM1 neurospheres; type: cell-based, human; conditions: for phosphorylation of STAT3: 20 ng/ml LIF (time course) or 100 pM TGFβ1 for 4 hours
Experimental: FIG. 5. TGFβ induces the LIF-JAK-STAT pathway in GEM neurospheres derived from patients. (A) The levels of p-STAT3 and STAT3 were determined by means of Western blotting of neurospheres of the sample of GBM1 treated with 20 ng/ml LIF for the indicated time periods. (B) The neurospheres of the sample of GBM1 were treated with 20 ng/ml LIF and/or 0.5 pM P6 for 15 minutes and the levels of total p-STAT3 and STAT3 were determined by means of Western blotting. (C) The neurospheres of the sample of GBM1 were treated with 100 pM TGFβ1 or the 2 pM TβRI inhibitor for 4 hours in the absence of EFG and FGF and the levels of p-STAT3, STAT3, p-Smad2, Smad2 and α-tubulin were determined by means of Western blotting. (D) the neurospheres of the sample of GBM1 were treated with 100 pM TGFβ1, 0.5 μM P6 or the blocking antibody against LIF for 4 hours in the absence of EGF and FGF and the levels of total p-STAT3 and STAT3 were determined by means of Western blotting.
Genomic DNA of U373MG was used to amplify the −634/+32 region of the human LIF promoter which was cloned into the pGL2-basic luciferase vector. The deletion constructs (−267/+32), and (−73/+32) were generated by means of digestion of the construct (−634/+32). Two point mutations were introduced in positions −183 bp and −184 bp in the construct (−267/+32) to interrupt the Smad binding element (SBE) and generate the construct (−267/+32) mutSBE. TGFβ1, TGFβ2, TGFβ3 (R&D Systems), TβRI inhibitor (SB431542, Tocris), LIF (Chemicon), the neutralizing antibodies against LIF (R&D), JAK inhibitor (tetracyclic pyridone 6 (P6) Calbiochem), the assembly of SMART siRNAs targeted to Smad2, Smad3 and Smad4 (Dharmacon), and the control siRNA siGlo (Dharmacon) were used at the indicated concentrations. The antibodies specific against p-Smad2, Smad2, p-STAT3 (p-Tyr705) and total STAT3 (Cell Signalling) and against Smad2, Smad3 and Smad4 (Hata et al., (2000) Cell 100, 229-240) were used for Western blotting.
In order to distinguish whether the LIF signaling pathway is functional in GEM neurospheres, the neurospheres were treated with recombinant LIF and the levels of phosphorylation of the downstream substrate of the LIF receptor complex, STAT3, were determined. […] Furthermore, the induction of p-STAT3 was prevented by the presence of a pharmacological JAK-specific, tetracyclic pyridone 6 (P6) (Pedranzini et al., 2006, Cancer Res, 66: 9714-9721; Thompson et al., 2002, Bioorg Med Chem Lett, 12:1219-1223) (FIG. 5B). […] It was decided to assess whether LIP was mediating the induction of p-STAT3 by TGFβ. For this purpose, a neutralizing antibody against LIF was used to specifically block the effect of secreted LIP on cells treated with TGFβ. The presence of the neutralizing antibody of LIP decreased the induction of p-STAT3 by TGFβ. Furthermore, the levels of p-STAT3 in cells treated with TGFβ were repressed by means of the treatment with P6 (FIG. 5D).

[2] = tested on: GICs (glioma initiating cells) / GBM neurospheres; test: Self-renewal assay of GBM neurospheres (GICs derived from patients); type: cell-based, human; conditions: for number of newly formed neurospheres / total number of cells: GBM1, GBM2, GBM3 neurosphere cells, 7 days in the absence of growth factors, 100 pM TGFβ1 or 20 ng/ml LIF
Experimental: FIG. 1. Effect of TGFβ on the self-renewal of GIC derived from patients. (A) Representative images of PCTCs and neurospheres of GBM generated from samples of 3 different patients with GBM (GBM1, GBM2, GBM3). (B) Musashi-1 (Msi-1), Sox2, Nestin and β-actin were determined by means of RT-PCR analysis of PCTCs and neurospheres of 3 samples of human GBM. (C) 100,000 neurosphere (nsph.) or PCTC cells obtained from samples of GBM1, GBM2 and GBM3 tumors were intracranially inoculated in three Balbc nu/nu mice in each case. Magnetic resonance imaging (MRI) studies were performed on days 30-40 in each mouse. The images represent an example of mice inoculated with neurosphere or PCTC cells obtained from GBM1. The mice were weighed twice a week. The graph represents mice inoculated with cells derived from GBM1. (D and E) Neurosphere cells of the indicated GBMs were incubated in the absence of growth factors with 100 pM TGFβ1 and/or 2 μM TβRI inhibitor for 7 days and the number of newly formed neurospheres (D) and the total number of cells (E) were determined. (F) Representative images of GBM1 neurospheres treated as indicated in D and E.
FIG. 6. LIF mediates the increase of self-renewal of GIC by TGFβ. (A, B) GBM1, GBM2 and GBM3 neurosphere cells were treated with 100 pM TGFβ1, 20 ng/ml LIF and/or anti-LIF neutralizing antibody and 0.5 pM P6 in the absence of EGF and FGF and the number of newly formed neurospheres (A) or the total number of cells (B) was determined. (C) Representative images of GBM1 neurospheres treated as indicated in A and B.
The self-renewal of the neurospheres was evaluated by seeding an identical number of cells at a very low density in wells of a 96-well plate. The cells were treated, in the absence of growth factors, with the indicated compounds and the total number of new neurospheres formed after 7 days in culture was counted (Lee et al. (2008) Cancer Cell 13, 69-80; Reynolds and Weiss, (1996) Dev Biol 175, 1-13; Seaberg and van der Kooy, (2002) J Neurosci 22, 1784-1793).
It was decided to evaluate the effect of TGFβ on the capacity for self-renewal of GICs following a well described protocol based on the capacity of GICs to generate neurospheres (Reynolds and Weiss, 1996, Dev Biol. 175:1-13; Seaberg and van der Kooy, 2002, J Neurosci 22:1784-1793). The neurospheres derived from patients were disassociated into individual cells, treated with TGFβ or left untreated for 7 days in the absence of growth factors and the newly formed neurospheres and the total number of cells were counted. Following this protocol, the effect of TGFβ on the capacity for self-renewal of the GICs derived from three different patients was evaluated. […] These effects were blocked when an TGFβ I receptor inhibitor (TβRI) was added at the same time as TGFβ.
It was decided to assess whether LIF and JAK-STAT pathway mediated the increase of self-renewal of GICs by TGFβ. For this purpose, the neutralizing antibody against LIP and P6 was used to specifically block the effect of the secreted LIP on cells treated with TGFβ. The neurospheres were disassociated into individual cells and were treated with TGFβ, recombinant LIF, anti-LIF antibody and/or P6. The newly formed neurospheres and the total number of cells were counted. […] The treatment with the neutralizing antibody of LIP decreased the induction of the self-renewal of GICs by TGFβ.

Compound	phosphorylation of STAT3 [1]	number of newly formed neurospheres [2]	total number of cells [2]	effect on the induction of p-STAT3 by TGFβ ([1]; 100 pM TGFβ1, 4 hours, absence of EGF and FGF, 2 pM TβRI inhibitor, 0.5 μM P6 or blocking antibody against LIF)	effect of the isolated inhibitor on number of neurospheres and total number of cells ([2]; 2 μM TβRI inhibitor without TGFβ, 7 days, absence of growth factors)	effect on the induction of self-renewal of GICs by TGFβ (number of neurospheres, total number of cells) ([2]; added with 100 pM TGFβ1, 2 μM TβRI inhibitor, anti-LIF neutralizing antibody or 0.5 pM P6, absence of EGF and FGF)
TGFβ: TGFβ1 (R&D Systems), used at 100 pM according to the figure legends	induced the phosphorylation of STAT3	significantly increased	increased			
NC(=O)c1ccc(-c2nc(-c3ccc4c(c3)OCO4)c(-c3ccccn3)[nH]2)cc1 [TβRI inhibitor, SB431542, reference compound]				prevented that effect	no significant effect	blocked
LIF: recombinant leukemia inhibitory factor, an IL-6 type cytokine (Chemicon)	induced a quick phosphorylation of STAT3	increased	increased			
